Here are results for two compounds from patent US20230045390A1, “PLASMODIUM VIVAX MALE GAMETE FUSION PROTEIN PVHAP2 AND THE PUTATIVE PROLIFERATING-CELL NUCLEOLAR ANTIGEN P120 AS RELAPSE BIOMARKERS” (Seattle Children's Hospital dba Seattle Children's Research …, priority 2021, published 2023).

One assay deals with P. vivax liver stages. The assay can be described thus: P. vivax infection of FRG huHep mice, quantification of liver stages by IFA. It is filed as in vivo, Plasmodium vivax. The protocol:
All animal procedures were conducted in accordance with and approved by the Center for Infectious Disease Research Institutional Animal Care and Use Committee (IACUC). The Center for Infectious Disease Research IACUC adheres to the NIH Office of Laboratory Animal Welfare standards (OLAW welfare assurance #A3640-01). Female FRG KO mice engrafted with human hepatocytes (FRG KO huHep) were purchased from Yecuris Corporation (Oregon, USA). P. vivax infections of FRG huHEP were performed as previously described. Briefly, mice were divided in five experimental groups. Group 1 (3 mice) was not infected. Group 2 (6 mice) was inoculated with P. vivax sporozoites by the bite of 20 mosquitos and euthanized after 8 days post-infection (dpi). Group 3 (6 mice) was infected by intravenous injection of P. vivax sporozoites (0.8 million) and euthanized after 8 dpi. Group 4 (6 mice) was infected by intravenous injection of P. vivax sporozoites (1 million sporozoites) and euthanized after 21 dpi. Group 5 (3 mice) was infected by intravenous injection (1 million sporozoites) and treated with Tafenoquine (10 mg/kg) at 14 dpi and euthanized at 21 dpi. MMV048 (Novartis) mice treatment (30 mg/kg) was performed as follows: three mice from Groups 2 and 3 received intravenous injections of the drug at 4 dpi; three mice from Group 4 received intravenous injections of the drug at 17 dpi. Three DMSO-treated animals were used as controls in groups 2, 3 and 4. After euthanasia, livers were extracted for characterization by IFA and RT-qPCR and whole blood was extracted by cardiac venipuncture for plasma collection as previously described (Schafer C, et al. A recombinant antibody against Plasmodium vivax UIS4 for distinguishing replicating from dormant liver stages. […] 17, 370 (2018)). IFA analysis of PHH and liver sections of FRG huHep mice was performed as described (Schafer C, et al. A Humanized Mouse Model for Plasmodium vivax to Test Interventions that Block Liver Stage to Blood Stage Transition and Blood Stage Infection. iScience 23, 101381 (2020); Schafer C, et al. A recombinant antibody against Plasmodium vivax UIS4 for distinguishing replicating from dormant liver stages. […] 17, 370 (2018)). Briefly, culture cells and liver tissue were fixed in 4% paraformaldehyde in TBS for 10 min (PHH) and 16 hours (liver sections). PHH were blocked and permeabilized in TBS with 2% bovine serum albumin and 0.2% Triton-X-100 (PBS/BSA/Triton). FRG huHep fixed livers were sectioned in 50 μm thick sections in a vibratome. Tissue sections were then permeabilized in 0.25% Triton X-100 and 3% H2O2 for 30 min followed by a blocking step in 5% skim milk in TBS for 1 hour at RT. […]

The test system of a further assay is P. vivax. The assay can be described thus: 18S qRT-PCR analysis of liver parasite load in infected FRG huHep mice. It is filed as in vivo, Plasmodium vivax. To be noted: for parasite load, 18S rRNA in liver tissue by RT-qPCR: compared to DMSO. The protocol: All animal procedures were conducted in accordance with and approved by the Center for Infectious Disease Research Institutional Animal Care and Use Committee (IACUC). The Center for Infectious Disease Research IACUC adheres to the NIH Office of Laboratory Animal Welfare standards (OLAW welfare assurance #A3640-01). Female FRG KO mice engrafted with human hepatocytes (FRG KO huHep) were purchased from Yecuris Corporation (Oregon, USA). P. vivax infections of FRG huHEP were performed as previously described. Briefly, mice were divided in five experimental groups. Group 1 (3 mice) was not infected. Group 2 (6 mice) was inoculated with P. vivax sporozoites by the bite of 20 mosquitos and euthanized after 8 days post-infection (dpi). Group 3 (6 mice) was infected by intravenous injection of P. vivax sporozoites (0.8 million) and euthanized after 8 dpi. Group 4 (6 mice) was infected by intravenous injection of P. vivax sporozoites (1 million sporozoites) and euthanized after 21 dpi. Group 5 (3 mice) was infected by intravenous injection (1 million sporozoites) and treated with Tafenoquine (10 mg/kg) at 14 dpi and euthanized at 21 dpi. MMV048 (Novartis) mice treatment (30 mg/kg) was performed as follows: three mice from Groups 2 and 3 received intravenous injections of the drug at 4 dpi; three mice from Group 4 received intravenous injections of the drug at 17 dpi. Three DMSO-treated animals were used as controls in groups 2, 3 and 4. After euthanasia, livers were extracted for characterization by IFA and RT-qPCR and whole blood was extracted by cardiac venipuncture for plasma collection as previously described (Schafer C, et al. A recombinant antibody against Plasmodium vivax UIS4 for distinguishing replicating from dormant liver stages. Malar J 17, 370 (2018)).
Liver parasite load from infected FRG huHEP mice was quantified as previously described (Flannery E L, et al. Assessing drug efficacy against Plasmodium falciparum liver stages in vivo. JCI Insight 3, (2018)).

In the next assay the test system is Plasmodium spp. To be noted: preclinical studies; cited from earlier work.
For assay [1], the system named is P. vivax liver stages in PHH. Kind of assay: P. vivax infection of primary human hepatocytes (PHH), quantification of extraerythrocytic forms by IFA. It is filed as cell-based, Plasmodium vivax. To be noted: 0.1 μM after day 3 post-infection, fixed day 6. How it is done: Primary human hepatocytes (BioIVT) were plated and infected in chamber slides as previously described (Schafer C, et al. A Humanized Mouse Model for Plasmodium vivax to Test Interventions that Block Liver Stage to Blood Stage Transition and Blood Stage Infection. […] 23, 101381 (2020)). Briefly, 8-well PermanoxTM slides (LabTek) were coated with collagen (Advanced Biomatrix) and seeded with 1.25×10^5 viable cells using InVitroGROTM CP medium (BioIVT) supplemented with 2% FBS without antibiotics (plating media). Four hours later, plating media was replaced with InVitroGROTM CP containing antibiotics (1× Torpedo Antibiotic Mix with 10 μM gentamycin) without serum (maintenance media). Two days after plating, cells were infected with freshly dissected P. vivax salivary gland sporozoites (MOI=1.0) for four hours in maintenance media supplemented with 20% FBS. Cells were washed once, and maintenance media replaced daily thereafter and stored at -80° C. for EV analysis. After day 3 post-infection, cultures were treated with 0.1 μM MMV048 or 0.1% DMSO as vehicle (FIG. 5). On day 6-post infection, cells were fixed and analyzed by IFA. Total extraerythrocytic forms (EEF) and schizont/hypnozoite numbers and ratio were quantified. IFA analysis of PHH and liver sections of FRG huHep mice was performed as described (Schafer C, et al. A Humanized Mouse Model for Plasmodium vivax to Test Interventions that Block Liver Stage to Blood Stage Transition and Blood Stage Infection. iScience 23, 101381 (2020); Schafer C, et al. A recombinant antibody against Plasmodium vivax UIS4 for distinguishing replicating from dormant liver stages. […] 17, 370 (2018)). Briefly, culture cells and liver tissue were fixed in 4% paraformaldehyde in TBS for 10 min (PHH) and 16 hours (liver sections). PHH were blocked and permeabilized in TBS with 2% bovine serum albumin and 0.2% Triton-X-100 (PBS/BSA/Triton). FRG huHep fixed livers were sectioned in 50 μm thick sections in a vibratome. […]

The test system of assay [2] is P. cynomolgi liver hypnozoites. As to conditions: radical cure mode, both in vitro and in vivo; cited from earlier work.
The mark [3] stands for this setting: group 5: 10 mg/kg at 14 dpi, euthanized 21 dpi.
Setting [4] is: group 4: intravenous infection, treated at 17 dpi, livers collected 21 dpi.

Molecules are shown by their SMILES. Entries after “also recorded” stand apart in the source; their conditions may differ.

For the compound `COc1cc(C)c2c(Oc3cccc(C(F)(F)F)c3)c(OC)cc(NC(C)CCCN)c2n1` (stereo not drawn) [Tafenoquine], in the assay with P. vivax liver stages (setting [3]), the “liver forms by IFA” value is “no liver forms were quantified”. In addition, the “parasite 18S rRNA in liver by RT-qPCR” value with P. vivax (setting [3]) is listed as “presence of parasite 18S rRNA”.

Regarding `CS(=O)(=O)c1ccc(-c2cnc(N)c(-c3ccc(C(F)(F)F)nc3)c2)cc1` [MMV048], the “number of schizonts in liver by IFA” value with P. vivax liver stages (30 mg/kg intravenous, groups 2, 3 and 4, compared to control mice) is on record as “significantly lower number of schizonts; also recorded: removed schizonts”. For the same compound, in the assay with P. vivax liver stages (setting [4]), the “hypnozoites in liver by IFA” value was “only one hypnozoite was detected”. For the same compound, the “schizonts in liver by IFA” value with P. vivax liver stages (setting [4]) was “no schizonts”. The “activity against asexual, transmission and liver stages” value in the assay with Plasmodium spp. is listed as “potent activity”. The “hypnozoites by IFA” value in assay [1] is on record as “resistance of hypnozoites to the drug”. In addition, the “schizonts by IFA” value in assay [1] (compared to DMSO) is “no schizonts were observed; also recorded: removed schizonts”. Moreover, in assay [1] (compared to DMSO-treated cells), the “total extraerythrocytic forms (EEF) by IFA” value is listed as “significant reduction”. The “activity against liver hypnozoites” value in assay [2] was “ineffective”. For the same compound, the “parasite load, 18S rRNA in liver tissue by RT-qPCR” value is “no differences” with P. vivax (day 21, group 4); “significantly reduced parasite load” with P. vivax (mosquito bite and intravenous infection, treated at 4 dpi, analyzed 8 dpi).
